One assay deals with GMC101 C. elegans strain. In words: Paralysis in C. elegans Alzheimer's disease model. The assay is classed as in vivo, Caenorhabditis elegans. To be noted: 4 mM, 30° C. As to the method:
Worms were age-synchronized by performing a timed egg lay for 3 hours with about 100 gravid adults and the eggs placed in a 20° C. incubator. Once the eggs had developed to the L4 stage at 42 hours post egg lay, they were picked onto NGM treatment plates containing 49.5 μM 5-fluoro-2′-deoxyuridine (FUDR, Sigma F0503) to prevent progeny production and either 4 mM α-KB or vehicle (water) control. The worms were then shifted to 30° C. to induce amyloid-beta aggregation and paralysis. […] Most paralyzed worms could still move their heads and part of their body. All worms were transferred to fresh treatment plates on Day 4.

Assay [1] has as its system cardiomyocytes of neonatal rats. In words: Catecholamine (ISO, PE) induced hypertrophy of cardiomyocytes. To be noted: 1 mM. The format is cell-based, rat. From the text: In additional experiments, cardiomyocytes of neonatal rats were isolated by collagenase digestion and cultured overnight in DMEM containing 10% FCS, and then culture medium was changed to serum-free high glucose DMEM with supplement of ITS (insulin, transferrin, and sodiumselenite).
Catecholamine-induced cardiac hypertrophy.

Another assay deals with T1, Complex II (Mus musculus, UniProt Q8K2B3+Q9CQA3+Q9CXV1+Q9CZB0).
T1 construct: Mitochondria were isolated from mouse liver as described earlier; from tissue; host or cells: liver mitochondria of 3-month-old C57BL/6 mice
Nature of the assay: Complex II driven coupling assay, isolated liver mitochondria (succinate and rotenone). The format is biochemical. To be noted: succinate supplemented. As to the method: Animal studies were performed under approved UCLA animal research protocols. Mitochondria from 3-month-old C57BL/6 mice were isolated. Briefly, livers were extracted, minced at 4° C. in MSHE+BSA (70 mM sucrose, 210 mM mannitol, 5 mM HEPES, 1 mM EGTA, and 0.5% fatty acid free BSA, pH 7.2), and rinsed several times to remove blood. All subsequent steps were performed on ice or at 4° C. The tissue was disrupted in 10 volumes of MSHE+BSA with a glass Dounce homogenizer (5-6 strokes) and the homogenate was centrifuged at 800×g for 10 minutes to remove tissue debris and nuclei. The supernatant was decanted through a cell strainer and centrifuged at 8,000×g for 10 minutes. The dark mitochondrial pellet was resuspended in MSHE+BSA and re-centrifuged at 8,000×g for 10 minutes. The final mitochondrial pellet was resuspended in 30 μl of MAS buffer (70 mM sucrose, 220 mM mannitol, 10 mM KH2PO4, 5 mM MgCl2, 2 mM HEPES, 1 mM EGTA, and 0.2% fatty acid free BSA, pH 7.2). Isolated mitochondrial respiration was measured by running coupling and electron flow assays as described. […]
Mitochondrial respiration was measured by running coupling and electron flow assays. […]

In a further assay the test system is C57BL/6 male mice. In words: Transverse aortic constriction (TAC) induced heart failure and cardiac hypertrophy. The format is in vivo, mouse. As to the method:
Surgical procedure was performed one day before treatment with vehicle or α-KB. Cardiac output was assessed 3 weeks post-treatment by determining the cardiac ejection fraction (EF) by echo.
Transverse aortic constriction (TAC) in mice was used to induce pressure overload-induced heart failure and cardiac hypertrophy. TAC surgical procedure was performed one day before treatment with vehicle or α-KB. C57BL/6 male mice were treated with α-KB at 30 mg/kg body weight per day in drinking water. Cardiac output was assessed 3 weeks post-treatment by determining the cardiac ejection fraction (EF) measured by Echo.

Data on 1 molecule can be found in patent publication US10729668B2, “Ketobutyrate compounds and compositions for treating age-related symptoms and diseases” (The Regents of the University of California, priority 2014, dated 2020).

The structures appear in SMILES notation.

T1 sequence (Q8K2B3 43-664): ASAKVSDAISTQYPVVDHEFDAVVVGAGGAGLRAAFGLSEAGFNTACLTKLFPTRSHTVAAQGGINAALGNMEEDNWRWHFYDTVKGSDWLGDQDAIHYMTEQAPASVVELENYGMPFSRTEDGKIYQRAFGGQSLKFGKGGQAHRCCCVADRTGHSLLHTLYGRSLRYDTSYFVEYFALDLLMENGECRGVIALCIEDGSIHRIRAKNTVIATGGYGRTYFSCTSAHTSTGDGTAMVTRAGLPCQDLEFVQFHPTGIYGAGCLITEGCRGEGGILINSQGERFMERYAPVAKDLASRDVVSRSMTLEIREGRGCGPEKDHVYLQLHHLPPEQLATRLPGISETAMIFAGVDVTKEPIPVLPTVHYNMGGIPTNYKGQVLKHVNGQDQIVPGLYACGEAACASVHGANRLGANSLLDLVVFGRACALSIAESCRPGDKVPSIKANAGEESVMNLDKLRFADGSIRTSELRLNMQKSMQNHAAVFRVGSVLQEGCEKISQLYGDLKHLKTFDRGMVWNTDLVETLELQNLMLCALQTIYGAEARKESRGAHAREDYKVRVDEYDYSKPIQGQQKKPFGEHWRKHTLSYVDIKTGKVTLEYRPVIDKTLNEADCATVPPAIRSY
T1 sequence (Q9CQA3 31-282): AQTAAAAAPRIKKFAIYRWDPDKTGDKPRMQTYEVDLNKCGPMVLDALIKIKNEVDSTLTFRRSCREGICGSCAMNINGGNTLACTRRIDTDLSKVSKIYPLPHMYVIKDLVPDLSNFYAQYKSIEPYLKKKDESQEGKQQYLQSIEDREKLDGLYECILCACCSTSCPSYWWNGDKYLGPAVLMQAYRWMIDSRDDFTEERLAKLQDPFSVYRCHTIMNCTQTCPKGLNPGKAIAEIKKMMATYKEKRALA
T1 sequence (Q9CZB0 30-169): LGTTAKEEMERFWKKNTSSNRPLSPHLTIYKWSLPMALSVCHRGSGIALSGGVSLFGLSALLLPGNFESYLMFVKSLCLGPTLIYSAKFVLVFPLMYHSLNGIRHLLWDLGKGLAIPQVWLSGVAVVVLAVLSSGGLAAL
T1 sequence (Q9CXV1 57-159): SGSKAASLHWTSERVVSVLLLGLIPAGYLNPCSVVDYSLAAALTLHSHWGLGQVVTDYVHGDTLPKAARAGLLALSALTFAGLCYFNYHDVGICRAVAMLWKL

Consider `CCC(=O)C(=O)O` [α-KB, α-ketobutyrate], for which the “delay of paralysis compared to vehicle treated worms” value in the assay on GMC101 C. elegans strain is reported as “up to 37%”. The “induced overexpression of ANF and BNP” value in assay [1] is “suppressed”. The “ISO- and PE-induced hypertrophy” value in assay [1] (48 hours) is listed as “completely abolished”. Moreover, the “mitochondrial respiration, Complex II-driven coupling” value on Complex II is recorded as “no effect”. Moreover, the mortality result in the assay on C57BL/6 male mice was “appeared to decrease mortality”. In addition, the “heart (mg)/body (g) ratio” value in the assay with C57BL/6 male mice (end of experiment (5 weeks), Mean, STEDV) came to 10.72±1.98.
